A short description of data set [1]: Pharmacokinetics in Goettingen minipigs. The following applies: for CL / t1/2 / AUCext / F / AUC / C0 / Vd / Cmax / Tmax: female Göttingen minipig; for CL / t1/2 / AUC / C0 / Vd / Cmax / Tmax: LC-MS; for CL / t1/2 / AUC / C0 / Vd / Cmax: non-compartmental analysis; for AUC / C0 / Vd / Cmax / Tmax: 1 mg/kg; for Vd: read-out: Vss. It counts as in vivo, minipig. As for the experimental part:
Goettingen minipigs (Ellegaard Göttingen Minipigs A/S, Soroe Landevej 302, DK-4261 Dalmose, Denmark) were dosed with the study peptide at a dose of 1 mg/kg IV and SC routes (0.1 mg/mL). Blood samples were collected from individual animals at the following time points: 0.083, 0.25, 0.5, 2, 4, 6, 8, 24, 48, 72, 96 and 168 h (IV route) and 0.25, 0.5, 2, 4, 6, 8, 24, 48, 72, 96 and 168 h (SC route). All samples, collected into K3-EDTA tubes, were centrifuged and plasma was harvested and stored at − 80 °C until analysis. Three hundred μL of 1% tri-fluoro acetic acid in acetonitrile containing 10 ng/mL irbesartan as internal standard were added to 30 μL of standard, QC and PK study samples to precipitate the plasma proteins. Each sample was vortexed and centrifuged, for 5 min, at 4000 rpm and at 4 °C. Two hundred and fifty microliters of supernatant were collected and evaporated under nitrogen at 37 °C in LoBIND 96 well plates. 150 µL of water/acetonitrile (90/10, v/v) were added to dissolve the evaporates and 10 µL of the extracted plasma samples were injected onto the column. Chromatographic separation was performed on a Thermo Vanquish (Thermo Scientific) chromatography system using a UPLC HSS T3, (50 mm × 2.1 mm I.D., 1.8 μm, Waters Corporation) with a flow rate of 0.600 mL/min at 40 °C and a two-solvent linear gradient system. Solvents A (water) and B (acetonitrile) contained both 0.1% formic acid. […] The Vanquish was coupled to an Orbitrap QExactive™ mass spectrometer (Thermo Scientific) in positive mode. Quantitation was performed in full scan. The optimized source parameters were as follows: ion spray voltage 3.8 kV, sheath gas flow 70 a.u., aux gas flow 10 a.u., aux T 300 °C, capillary T 250 °C, S-lens RF level 60%. Full MS parameters were as follows: mass range 150–2000, AGC target 1 × 10^6, max injection time 250 ms, resolution 70,000 (FWHM @ 200 m/z). Data processing was performed using Xcalibur 3.0 (Thermo Scientific). Ion current of the [M + 5H]5 + of the SA10SC-RLX was extracted with 5 ppm window for quantitation (814.47219 m/z). A calibration curve with 9 standard points was prepared freshly on the day of analysis by spiking appropriate amounts of an intermediate working standard solution into blank rat plasma and ranged from 10 to 4000 ng/mL (2.46–983 nM). Three QC samples, each at four concentration levels from […] to 3200 ng/mL (7.86–786 nM), were used for all analyses. Calibration curves were prepared by plotting the analyte to internal standard peak area ratio versus concentration. Calibration standards were fit by linear regression with 1/x^2 weighting. QC samples (n = 3) were used at six concentration levels. Accepted calibration curve contained minimum 7 concentration levels within ± 20% of nominal (± 25% at the Lower Limit of Quantitation). Accepted QCs were within ± 20% of nominal. PK parameters were calculated using a non-compartmental analysis with Phoenix WinNonLin version 6.4 software.

Data set [2] deals with T1, hRXFP1 (S69P/F76V) (Homo sapiens, UniProt Q9HBX9, F76V/S69P).
T1 sequence (Q9HBX9 1-757 S69P/F76V): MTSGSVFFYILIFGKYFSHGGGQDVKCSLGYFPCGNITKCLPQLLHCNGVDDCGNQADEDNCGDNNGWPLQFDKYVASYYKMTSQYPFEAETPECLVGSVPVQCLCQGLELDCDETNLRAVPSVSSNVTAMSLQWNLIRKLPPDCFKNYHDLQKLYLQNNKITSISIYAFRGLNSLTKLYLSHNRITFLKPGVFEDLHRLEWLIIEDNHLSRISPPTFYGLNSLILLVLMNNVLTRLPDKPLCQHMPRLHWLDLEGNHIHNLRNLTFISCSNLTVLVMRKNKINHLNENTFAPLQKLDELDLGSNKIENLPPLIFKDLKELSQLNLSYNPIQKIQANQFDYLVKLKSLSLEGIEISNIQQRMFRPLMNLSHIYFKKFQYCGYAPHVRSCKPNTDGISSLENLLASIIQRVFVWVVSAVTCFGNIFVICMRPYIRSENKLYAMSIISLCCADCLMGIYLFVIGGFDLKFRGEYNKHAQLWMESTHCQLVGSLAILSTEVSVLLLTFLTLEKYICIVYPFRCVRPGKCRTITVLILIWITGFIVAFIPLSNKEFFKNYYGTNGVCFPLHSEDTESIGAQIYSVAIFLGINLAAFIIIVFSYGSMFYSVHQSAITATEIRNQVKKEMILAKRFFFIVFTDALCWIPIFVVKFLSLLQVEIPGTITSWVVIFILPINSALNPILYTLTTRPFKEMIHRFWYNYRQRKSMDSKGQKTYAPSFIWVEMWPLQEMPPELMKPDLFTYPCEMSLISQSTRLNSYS
The experiment in a line: cAMP production in HEK cells expressing hRXFP1 (S69P/F76V). It counts as cell-based. The following applies: hRXFP1 F76V-S69P dual mutant, n = 4 experiments in duplicate. As for the experimental part:
HEK cells were stably transduced with lentiviral constructs (Vectalys, MOI 20, batches rV2.1A1.5057 B, rV2.1A1.5056 B and rV2.1A1.5059 B) containing a bicistronic vectors encoding hRXFP1 (S69P) or hRXFP1 (F76V) or hRXFP1 (S69P/F76V) under the EF1 promoter followed by an internal ribosome entry site (IRES) elements to express the neomycin antibiotic resistance gene for selection with 500 μg/mL Geneticin (Invitrogen, #10131-019). Three days post transduction, HEK cells were grown in the presence of Genetecin. Positive individual clones were selected and amplified, and cAMP readout (nM) was used as described for other cell types at a cell density of 8000 cells/well.
(In general: Cyclic AMP is a second messenger, typically raised through Gs and lowered through Gi signalling.)

Where [3] appears, read: female, Göttingen, minipig, plasma, iv, IV 1 mg/kg, animal 1.
The mark [4] stands for this setting: female, Göttingen, minipig, plasma, iv, IV 1 mg/kg, animal 2.
The mark [5] stands for this setting: female, Göttingen, minipig, plasma, sc, SC 1 mg/kg, animal 3.
Where [6] appears, read: female, Göttingen, minipig, plasma, sc, SC 1 mg/kg, animal 4.

The text below walks through data of PMC9705314, “Characterization of a new potent and long-lasting single chain peptide agonist of RXFP1 in cells and in vivo translational models” (Scientific Reports, 2022).

Where two headings read alike, the source gives them in different places. *1 amine or outer side, *2 acyl side, *3 side chain or, on linkers, in order; H or OH if unused. Where a SMILES comes first, the peptide text is derived from it. Side-chain parts run from the residue outwards. [ ]: non-standard residue; d: D form. The star is where a group is joined. γGlu = O=C(O)[C@H](CCC(=O)[*:2])N[*:1]; Stearoyl = CCCCCCCCCCCCCCCCCC(=O)*; Nle = CCCC[C@H](N)C(=O)O; AEEA = NCCOCCOCC(=O)O; Aib = CC(C)(N)C(=O)O

For the compound `CCCCCCCCCCCCCCCCCC(=O)N[C@@H](CCC(=O)N[C@@H](CCC(=O)N[C@@H](CCC(=O)NCCOCCOCC(=O)NCCOCCOCC(=O)NCCOCCOCC(=O)NCCCC[C@H](NC(=O)[C@H](CCCCNC(C)=O)NC(=O)[C@H](CCCCN)NC(=O)[C@H](CCCNC(=N)N)NC(=O)C(C)(C)NC(=O)[C@H](CO)NC(=O)[C@H](Cc1c[nH]c2ccccc12)NC(=O)[C@@H](NC(=O)[C@H](CO)NC(=O)[C@H](CCCC)NC(=O)CNC(=O)[C@H](CCC(=O)O)NC(=O)C(C)(C)NC(=O)C(C)(C)NC(=O)[C@@H](NC(=O)[C@H](CCCCNC(C)=O)NC(=O)[C@H](C)NC(=O)[C@H](CCCNC(=N)N)NC(=O)[C@@H](NC(=O)[C@H](CCCCN)NC(=O)[C@H](CCC(=O)O)NC(=O)[C@H](CCCNC(=N)N)NC(=O)CNC(=O)[C@H](CCC(=O)O)NC(=O)[C@H](CC(C)C)NC(C)=O)C(C)C)[C@@H](C)CC)[C@@H](C)O)C(N)=O)C(=O)O)C(=O)O)C(=O)O` [SA10SC-RLX] (Ac-LEGREKVRAK(Ac)I[Aib][Aib]EG[Nle]STWS[Aib]RKK(Ac)K([AEEA-AEEA-AEEA-γGlu-γGlu-γGlu-Stearoyl])-NH2), the CL worked out at 0.130 mL/min/kg in data set [1] (IV 1 mg/kg, plasma, animal 1) and 0.151 mL/min/kg in data set [1] (IV 1 mg/kg, plasma, animal 2). The t1/2 in data set [1] (IV 1 mg/kg, plasma, animal 1) is recorded as 7.06 h; in data set [1] (IV 1 mg/kg, plasma, animal 2), 6.92 h. Besides, the AUCext is reported as 0.462% in data set [1] (IV 1 mg/kg, plasma, animal 1); 0.479% in data set [1] (IV 1 mg/kg, plasma, animal 2); 3.16% in data set [1] (SC 1 mg/kg, plasma, animal 3); 1.83% in data set [1] (SC 1 mg/kg, plasma, animal 4). In addition, the F in data set [1] (SC 1 mg/kg vs IV 1 mg/kg, animal 3) is reported as 81%; in data set [1] (SC 1 mg/kg vs IV 1 mg/kg, animal 4) it was 56%. Further, the AUC in data set [1] (setting [3]) amounted to 31.9 µM·h; in data set [1] (setting [4]), 27.1 µM·h; in data set [1] (setting [5]), 23.8 µM·h; in data set [1] (setting [6]), 16.6 µM·h. The C0 came to 9360 nM in data set [1] (setting [3]) and 8570 nM in data set [1] (setting [4]). Further, the Vd in data set [1] (female, Göttingen, minipig, plasma, iv, IV 1 mg/kg, plasma, animal 1) came out at 0.0439 L/kg; in data set [1] (female, Göttingen, minipig, plasma, iv, IV 1 mg/kg, plasma, animal 2), 0.0497 L/kg. For the same compound, the peak concentration (Cmax) in data set [1] (setting [5]) was found to be 1420 nM; in data set [1] (setting [6]), 1450 nM. Besides, the Tmax in data set [1] (setting [5]) worked out at 6 h; in data set [1] (setting [6]), 4 h. In data set [1] (female, Göttingen, minipig, plasma, minipigs, IV 1 mg/kg, n = 2), this compound had a clearance of 0.14 mL/min/kg. Moreover, the bioavailability in data set [1] (female, Göttingen, minipig, plasma, minipigs, SC 1 mg/kg vs IV 1 mg/kg, read-out: bioavailability (ratio of scAUC/ivAUC)) is ~70%. The level at time molar at 12 h in data set [1] (female, Göttingen, minipig, plasma, minipigs, SC 1 mg/kg, read-out: plasma concentration after 12 h) is ~1000 nM. Further, the apparent terminal half-life in data set [1] (minipigs, IV 1 mg/kg, n = 2) worked out at 7 h.

Regarding relaxin, the “cAMP response (efficacy)” value in data set [2] is given as “reduced in all RXFP1 mutants compared to the wild type construct”.

For orientation: AUC means concentration integrated over time. Usually Cmax stands for the peak of the concentration-time curve. Usually Tmax stands for the time at which the peak concentration occurs. Broadly, the clearance is a measure of how efficiently the substance is removed, as volume per time. Low values mean a low capacity for elimination, high ones a high capacity for elimination.
